Measured values: PubChem BioAssay (NCI)
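48-hour exposure; five concentrations; linearly interpolated endpoints. GI50 marks 50% less growth. Definition used: TGI = concentration required for complete inhibition of growth.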

Key:
Assay in all cases: DTP human tumour cell line panel, 48 h
COLO 205 colon = tested on: COLO 205 colon
MDA-MB-435 = tested on: MDA-MB-435
SK-MEL-28 melanoma = tested on: SK-MEL-28 melanoma
RPMI-8226 leukemia = tested on: RPMI-8226 leukemia
UACC-62 melanoma = tested on: UACC-62 melanoma
MCF7 breast = tested on: MCF7 breast
SW-620 colon = tested on: SW-620 colon
SR leukemia = tested on: SR leukemia
EKVX NSCLC = tested on: EKVX NSCLC
T-47D breast = tested on: T-47D breast
A549 NSCLC = tested on: A549 NSCLC
UO-31 renal = tested on: UO-31 renal
SF-539 CNS = tested on: SF-539 CNS
A498 renal = tested on: A498 renal
HCT-15 colon = tested on: HCT-15 colon
HOP-92 NSCLC = tested on: HOP-92 NSCLC
HL-60(TB) leukemia = tested on: HL-60(TB) leukemia
HS 578T breast = tested on: HS 578T breast
NCI-H23 lung = tested on: NCI-H23 lung
U251 CNS = tested on: U251 CNS
HCT-116 colon = tested on: HCT-116 colon
OVCAR-4 ovarian = tested on: OVCAR-4 ovarian
CAKI-1 renal = tested on: CAKI-1 renal
NCI-H226 lung = tested on: NCI-H226 lung
786-0 renal = tested on: 786-0 renal
IGROV1 ovarian = tested on: IGROV1 ovarian
SNB-19 CNS = tested on: SNB-19 CNS
SNB-75 CNS = tested on: SNB-75 CNS
ACHN renal = tested on: ACHN renal
SN12C renal = tested on: SN12C renal
CCRF-CEM leukemia = tested on: CCRF-CEM leukemia
OVCAR-3 ovarian = tested on: OVCAR-3 ovarian
LOX IMVI melanoma = tested on: LOX IMVI melanoma
OVCAR-5 ovarian = tested on: OVCAR-5 ovarian
NCI-H522 lung = tested on: NCI-H522 lung
SF-268 CNS = tested on: SF-268 CNS
TK-10 renal = tested on: TK-10 renal
HOP-62 NSCLC = tested on: HOP-62 NSCLC
DU-145 prostate = tested on: DU-145 prostate
MOLT-4 leukemia = tested on: MOLT-4 leukemia
NCI-H460 lung = tested on: NCI-H460 lung
HT29 colon = tested on: HT29 colon
PC-3 prostate = tested on: PC-3 prostate
MALME-3M melanoma = tested on: MALME-3M melanoma
OVCAR-8 ovarian = tested on: OVCAR-8 ovarian
SK-OV-3 ovarian = tested on: SK-OV-3 ovarian
SK-MEL-5 melanoma = tested on: SK-MEL-5 melanoma
RXF 393 renal = tested on: RXF 393 renal
M14 melanoma = tested on: M14 melanoma
BT-549 breast = tested on: BT-549 breast
UACC-257 melanoma = tested on: UACC-257 melanoma
KM12 colon = tested on: KM12 colon
SF-295 CNS = tested on: SF-295 CNS
MDA-MB-231 breast = tested on: MDA-MB-231 breast
K-562 leukemia = tested on: K-562 leukemia
NCI/ADR-RES ovarian = tested on: NCI/ADR-RES ovarian
SK-MEL-2 melanoma = tested on: SK-MEL-2 melanoma
HCC-2998 colon = tested on: HCC-2998 colon

## CCN(C(=O)N1CCN(c2cc3c(cc2F)c(=O)c(C(=O)O)cn3C2CC2)CC1)c1nc(-c2ccc(Cl)cc2)cs1
COLO 205 colon
  GI50: 2000 nM
  TGI: 6170 nM
MDA-MB-435
  GI50: 1210 nM
  TGI: 7030 nM
SK-MEL-28 melanoma
  GI50: 1910 nM
  TGI: > 100000 nM
RPMI-8226 leukemia
  GI50: 838 nM
  TGI: 3170 nM
UACC-62 melanoma
  GI50: 1130 nM
  TGI: 3550 nM
MCF7 breast
  GI50: 2970 nM
  TGI: > 100000 nM
SW-620 colon
  GI50: 1830 nM
  TGI: > 100000 nM
SR leukemia
  GI50: 272 nM
  TGI: 897 nM
EKVX NSCLC
  GI50: 2540 nM
  TGI: > 100000 nM
T-47D breast
  GI50: 1990 nM
  TGI: > 100000 nM
A549 NSCLC
  GI50: 1010 nM
  TGI: > 100000 nM
UO-31 renal
  GI50: 986 nM
  TGI: > 20500 nM
SF-539 CNS
  GI50: 1020 nM
  TGI: 3740 nM
A498 renal
  GI50: 29.8 nM
  TGI: 1600 nM
HCT-15 colon
  GI50: 967 nM
  TGI: > 100000 nM
HOP-92 NSCLC
  GI50: 825 nM
  TGI: 4800 nM
HL-60(TB) leukemia
  GI50: 669 nM
  TGI: 1770 nM
HS 578T breast
  GI50: 1260 nM
  TGI: 13000 nM
NCI-H23 lung
  GI50: 1560 nM
  TGI: 8450 nM
U251 CNS
  GI50: 1150 nM
  TGI: 29700 nM
HCT-116 colon
  GI50: 1100 nM
  TGI: > 100000 nM
OVCAR-4 ovarian
  GI50: 1480 nM
  TGI: > 57100 nM
CAKI-1 renal
  GI50: 2170 nM
  TGI: 11400 nM
NCI-H226 lung
  GI50: 1790 nM
  TGI: 5200 nM
786-0 renal
  GI50: 2410 nM
  TGI: 15400 nM
IGROV1 ovarian
  GI50: 538 nM
  TGI: 1790 nM
SNB-19 CNS
  GI50: 1090 nM
  TGI: 49500 nM
SNB-75 CNS
  GI50: 1370 nM
  TGI: 9320 nM
ACHN renal
  GI50: 1240 nM
  TGI: 10100 nM
SN12C renal
  GI50: 991 nM
  TGI: > 100000 nM
CCRF-CEM leukemia
  GI50: 2450 nM
  TGI: > 100000 nM
OVCAR-3 ovarian
  GI50: 1220 nM
  TGI: > 100000 nM
LOX IMVI melanoma
  GI50: 370 nM
  TGI: 1630 nM
OVCAR-5 ovarian
  GI50: 2620 nM
  TGI: > 100000 nM
NCI-H522 lung
  GI50: 1800 nM
  TGI: > 26500 nM
SF-268 CNS
  GI50: 1280 nM
  TGI: > 100000 nM
TK-10 renal
  GI50: 2890 nM
  TGI: > 51900 nM
HOP-62 NSCLC
  GI50: 1600 nM
  TGI: 17700 nM
DU-145 prostate
  GI50: 1830 nM
  TGI: > 100000 nM
MOLT-4 leukemia
  GI50: 542 nM
  TGI: 3670 nM
NCI-H460 lung
  GI50: 960 nM
  TGI: > 100000 nM
HT29 colon
  GI50: 1060 nM
  TGI: > 100000 nM
PC-3 prostate
  GI50: 858 nM
  TGI: > 26000 nM
MALME-3M melanoma
  GI50: 1380 nM
  TGI: 5950 nM
OVCAR-8 ovarian
  GI50: 1310 nM
  TGI: > 100000 nM
SK-OV-3 ovarian
  GI50: 1830 nM
  TGI: 6460 nM
SK-MEL-5 melanoma
  GI50: 1990 nM
  TGI: 15900 nM
RXF 393 renal
  GI50: 978 nM
  TGI: 7510 nM
M14 melanoma
  GI50: 2120 nM
  TGI: > 100000 nM
BT-549 breast
  GI50: 1020 nM
  TGI: 5610 nM
UACC-257 melanoma
  GI50: 2530 nM
  TGI: 7300 nM
KM12 colon
  GI50: 1290 nM
  TGI: > 100000 nM
SF-295 CNS
  GI50: 888 nM
  TGI: 6000 nM
MDA-MB-231 breast
  GI50: 1690 nM
  TGI: 6350 nM
K-562 leukemia
  GI50: 1130 nM
  TGI: > 100000 nM
NCI/ADR-RES ovarian
  GI50: 2070 nM
  TGI: 13700 nM
SK-MEL-2 melanoma
  GI50: 2120 nM
  TGI: 5390 nM
HCC-2998 colon
  GI50: 2830 nM
  TGI: > 28600 nM
